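Compound exposure: 48 hours, 5 concentrations, 96-well plates. At the GI50, growth is halved.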 Activity calls are given as the source filed them. Cut-off read from the data, not from the text of the source: active = GI50 up to about 1.1 µM and inactive = higher.
Assays:
Assay in all cases: NCI-60 cell line screen, 48 h
786-0 = tested on: 786-0
A498 = tested on: A498
A549 = tested on: A549
ACHN = tested on: ACHN
BT-549 = tested on: BT-549
CAKI-1 = tested on: CAKI-1
CCRF-CEM = tested on: CCRF-CEM
COLO 205 = tested on: COLO 205
DU-145 = tested on: DU-145
EKVX = tested on: EKVX
HCC 2998 = tested on: HCC 2998
HCT-116 = tested on: HCT-116
HCT-15 = tested on: HCT-15
HL-60 = tested on: HL-60
HOP-62 = tested on: HOP-62
HOP-92 = tested on: HOP-92
HT-29 = tested on: HT-29
Hs-578T = tested on: Hs-578T
IGROV-1 = tested on: IGROV-1
K562 = tested on: K562
KM12 = tested on: KM12
LOX IMVI = tested on: LOX IMVI
M14 = tested on: M14
MCF7 = tested on: MCF7
MDA-MB-231 = tested on: MDA-MB-231
MDA-MB-435 = tested on: MDA-MB-435
MDA-N = tested on: MDA-N
MOLT-4 = tested on: MOLT-4
Malme-3M = tested on: Malme-3M
NCI-H226 = tested on: NCI-H226
NCI-H23 = tested on: NCI-H23
NCI-H460 = tested on: NCI-H460
NCI-H522 = tested on: NCI-H522
NCI/ADR-RES = tested on: NCI/ADR-RES
OVCAR-3 = tested on: OVCAR-3
OVCAR-4 = tested on: OVCAR-4
OVCAR-5 = tested on: OVCAR-5
OVCAR-8 = tested on: OVCAR-8
PC-3 = tested on: PC-3
RPMI-8226 = tested on: RPMI-8226
RXF 393 = tested on: RXF 393
SF-268 = tested on: SF-268
SF-295 = tested on: SF-295
SF-539 = tested on: SF-539
SK-MEL-28 = tested on: SK-MEL-28
SK-MEL-2 = tested on: SK-MEL-2
SK-MEL-5 = tested on: SK-MEL-5
SK-OV-3 = tested on: SK-OV-3
SN12C = tested on: SN12C
SNB-19 = tested on: SNB-19
SNB-75 = tested on: SNB-75
SW-620 = tested on: SW-620
T47D = tested on: T47D
TK-10 = tested on: TK-10
U-251 = tested on: U-251
UACC-257 = tested on: UACC-257
UACC-62 = tested on: UACC-62
UO-31 = tested on: UO-31
SR = tested on: SR

COc1cc(/C=C2\CCc3cc(OC)c(OC)cc3C2=O)cc(OC)c1
GI50 (786-0): 4.66 µM (inactive)
GI50 (A498): 6.82 µM (inactive)
GI50 (A549): 5.2 µM (inactive)
GI50 (ACHN): 30.3 µM (inactive)
GI50 (BT-549): 10.4 µM (inactive)
GI50 (CAKI-1): 8.67 µM (inactive)
GI50 (CCRF-CEM): 4.08 µM (inactive)
GI50 (COLO 205): 3.28 µM (inactive)
GI50 (DU-145): 9.98 µM (inactive)
GI50 (EKVX): 24.3 µM (inactive)
GI50 (HCC 2998): 5.3 µM (inactive)
GI50 (HCT-116): 3.81 µM (inactive)
GI50 (HCT-15): 3.62 µM
GI50 (HL-60): 3.51 µM (inactive)
GI50 (HOP-62): 7.94 µM (inactive)
GI50 (HOP-92): 24.3 µM (inactive)
GI50 (HT-29): 3.49 µM (inactive)
GI50 (Hs-578T): 23.9 µM (inactive)
GI50 (IGROV-1): 7.35 µM (inactive)
GI50 (K562): 3.03 µM (inactive)
GI50 (KM12): 4.88 µM (inactive)
GI50 (LOX IMVI): 6.3 µM (inactive)
GI50 (M14): 5.47 µM (inactive)
GI50 (MCF7): 4.2 µM (inactive)
GI50 (MDA-MB-231): 12.9 µM (inactive)
GI50 (MDA-MB-435): 1.99 µM (inactive)
GI50 (MDA-N): 1.45 µM (inactive)
GI50 (MOLT-4): 12.8 µM (inactive)
GI50 (Malme-3M): 10 µM (inactive)
GI50 (NCI-H226): 5.04 µM (inactive)
GI50 (NCI-H23): 10.9 µM (inactive)
GI50 (NCI-H460): 5.41 µM (inactive)
GI50 (NCI-H522): 5.93 µM (inactive)
GI50 (NCI/ADR-RES): 3.15 µM (inactive)
GI50 (OVCAR-3): 4.47 µM (inactive)
GI50 (OVCAR-4): 21.4 µM (inactive)
GI50 (OVCAR-5): 24.2 µM (inactive)
GI50 (OVCAR-8): 9.02 µM (inactive)
GI50 (PC-3): 8.55 µM (inactive)
GI50 (RPMI-8226): 12.8 µM (inactive)
GI50 (RXF 393): 4.9 µM (inactive)
GI50 (SF-268): 41.2 µM (inactive)
GI50 (SF-295): 3.92 µM (inactive)
GI50 (SF-539): 5.38 µM (inactive)
GI50 (SK-MEL-28): 15.8 µM (inactive)
GI50 (SK-MEL-2): 5.96 µM (inactive)
GI50 (SK-MEL-5): 3.87 µM (inactive)
GI50 (SK-OV-3): 14.2 µM (inactive)
GI50 (SN12C): 5 µM (inactive)
GI50 (SNB-19): > 28.6 µM (inactive)
GI50 (SNB-75): 21.3 µM (inactive)
GI50 (SW-620): 6.19 µM (inactive)
GI50 (T47D): 5.9 µM (inactive)
GI50 (TK-10): 24 µM (inactive)
GI50 (U-251): 6.28 µM (inactive)
GI50 (UACC-257): 19.7 µM (inactive)
GI50 (UACC-62): 3.75 µM (inactive)
GI50 (UO-31): 20.5 µM (inactive)

Oc1[nH]c(Nc2cccc(CC(F)(F)F)c2)nc2ncnc1-2
GI50 (786-0): > 100 µM (inactive)
GI50 (A498): > 100 µM (inactive)
GI50 (A549): > 100 µM (inactive)
GI50 (ACHN): > 100 µM (inactive)
GI50 (BT-549): > 100 µM (inactive)
GI50 (CAKI-1): > 100 µM (inactive)
GI50 (CCRF-CEM): > 100 µM (inactive)
GI50 (COLO 205): > 100 µM (inactive)
GI50 (DU-145): > 100 µM (inactive)
GI50 (EKVX): > 100 µM (inactive)
GI50 (HCC 2998): > 100 µM (inactive)
GI50 (HCT-116): > 100 µM (inactive)
GI50 (HCT-15): > 100 µM
GI50 (HL-60): > 100 µM (inactive)
GI50 (HOP-62): > 100 µM (inactive)
GI50 (HOP-92): > 100 µM (inactive)
GI50 (HT-29): > 100 µM (inactive)
GI50 (Hs-578T): > 100 µM (inactive)
GI50 (IGROV-1): > 100 µM (inactive)
GI50 (KM12): > 100 µM (inactive)
GI50 (LOX IMVI): > 100 µM (inactive)
GI50 (M14): > 100 µM (inactive)
GI50 (MCF7): > 100 µM (inactive)
GI50 (MDA-MB-231): > 100 µM (inactive)
GI50 (MDA-MB-435): > 100 µM (inactive)
GI50 (MDA-N): > 100 µM (inactive)
GI50 (Malme-3M): > 100 µM (inactive)
GI50 (NCI-H226): > 100 µM (inactive)
GI50 (NCI-H23): > 100 µM (inactive)
GI50 (NCI-H460): > 100 µM (inactive)
GI50 (NCI-H522): > 100 µM (inactive)
GI50 (NCI/ADR-RES): > 100 µM (inactive)
GI50 (OVCAR-3): > 100 µM (inactive)
GI50 (OVCAR-4): > 100 µM (inactive)
GI50 (OVCAR-5): > 100 µM (inactive)
GI50 (OVCAR-8): > 100 µM (inactive)
GI50 (PC-3): > 100 µM (inactive)
GI50 (RPMI-8226): > 100 µM (inactive)
GI50 (SF-268): > 100 µM (inactive)
GI50 (SF-295): > 100 µM (inactive)
GI50 (SF-539): > 100 µM (inactive)
GI50 (SK-MEL-28): > 100 µM (inactive)
GI50 (SK-MEL-2): > 100 µM (inactive)
GI50 (SK-MEL-5): > 100 µM (inactive)
GI50 (SK-OV-3): > 100 µM (inactive)
GI50 (SN12C): > 100 µM (inactive)
GI50 (SNB-19): > 100 µM (inactive)
GI50 (SNB-75): 95.5 µM (inactive)
GI50 (SR): > 100 µM (inactive)
GI50 (SW-620): > 100 µM (inactive)
GI50 (T47D): > 100 µM (inactive)
GI50 (TK-10): > 100 µM (inactive)
GI50 (U-251): > 100 µM (inactive)
GI50 (UACC-257): > 100 µM (inactive)
GI50 (UACC-62): > 100 µM (inactive)
GI50 (UO-31): > 100 µM (inactive)

From ChEMBL document CHEMBL1201862, “PubChem BioAssay data set” (2004)
